The source of these data is ChEMBL document CHEMBL1151009, “Synthesis and pharmacological evaluation of combined Thromboxane receptor antagonists/thromboxane synthase inhibitors: Pyridine-containing amino-prostanoids” (Bioorg Med Chem Lett, 1991).

In general, IC50 refers to the concentration that gives 50% inhibition. Higher therefore signals lower potency.

In experiment [1] the target is T1, Thromboxane A2 receptor (Rattus norvegicus, UniProt P34978).
T1 sequence (P34978 whole entry): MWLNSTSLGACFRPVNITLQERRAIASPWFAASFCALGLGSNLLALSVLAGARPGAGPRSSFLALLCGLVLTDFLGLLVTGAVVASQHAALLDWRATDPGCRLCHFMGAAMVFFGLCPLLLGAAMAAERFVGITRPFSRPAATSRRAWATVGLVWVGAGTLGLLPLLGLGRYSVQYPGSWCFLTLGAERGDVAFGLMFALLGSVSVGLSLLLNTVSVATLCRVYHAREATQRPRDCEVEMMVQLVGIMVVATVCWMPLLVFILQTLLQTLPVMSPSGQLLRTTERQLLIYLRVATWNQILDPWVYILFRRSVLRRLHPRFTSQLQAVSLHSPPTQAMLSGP
Briefly: In vitro thromboxane A2 receptor antagonism through inhibition of U-46619-induced contraction of rat isolated thoracic aortic strip. The format is functional. The following applies: read-out: pA2 (converted).

Experiment [2] has as its target T2, Thromboxane A2 receptor (Homo sapiens, UniProt P21731).
T2 sequence (P21731 whole entry): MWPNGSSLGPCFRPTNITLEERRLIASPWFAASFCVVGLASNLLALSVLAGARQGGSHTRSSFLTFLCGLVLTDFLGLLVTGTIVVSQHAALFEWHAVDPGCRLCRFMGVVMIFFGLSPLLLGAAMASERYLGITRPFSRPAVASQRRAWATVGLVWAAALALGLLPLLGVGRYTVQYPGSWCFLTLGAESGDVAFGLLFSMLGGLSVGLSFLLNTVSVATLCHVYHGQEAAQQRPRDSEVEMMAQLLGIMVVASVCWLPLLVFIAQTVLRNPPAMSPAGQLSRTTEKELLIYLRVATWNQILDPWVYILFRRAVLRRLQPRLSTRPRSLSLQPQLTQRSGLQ
In words: In vitro thromboxane A2 receptor antagonism through inhibition of U-46619-induced platelet aggregation in human whole blood. As to conditions: read-out: pA2 (converted). The format is functional, tissue-based.

The next experiment concerns the target T3, Thromboxane-A synthase (Homo sapiens, UniProt P24557).
T3 sequence (P24557 whole entry): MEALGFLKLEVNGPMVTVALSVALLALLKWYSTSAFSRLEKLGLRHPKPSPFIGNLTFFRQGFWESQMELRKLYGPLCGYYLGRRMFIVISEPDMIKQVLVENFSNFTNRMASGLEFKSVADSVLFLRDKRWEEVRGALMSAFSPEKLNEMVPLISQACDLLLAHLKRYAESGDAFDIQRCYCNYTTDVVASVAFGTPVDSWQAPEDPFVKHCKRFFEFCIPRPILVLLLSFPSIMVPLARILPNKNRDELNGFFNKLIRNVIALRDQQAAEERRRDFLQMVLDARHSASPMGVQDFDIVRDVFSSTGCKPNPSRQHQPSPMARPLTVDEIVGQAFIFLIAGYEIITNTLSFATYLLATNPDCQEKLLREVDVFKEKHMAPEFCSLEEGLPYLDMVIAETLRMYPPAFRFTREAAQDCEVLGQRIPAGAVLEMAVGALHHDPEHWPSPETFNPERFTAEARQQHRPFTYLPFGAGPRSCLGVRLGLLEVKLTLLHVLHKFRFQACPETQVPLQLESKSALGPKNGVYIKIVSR
Briefly: In vitro TXA2 synthase antagonism through inhibition of collagen induced thromboxane-A2 production in human citreated whole blood. The format is functional, tissue-based.

Consider `Cc1ccncc1-c1ccc(CO[C@@H]2CC[C@H](N3CCCCCC3)[C@H]2OC/C=C\CCC(=O)O)cc1`, for which the values for the Kb at Thromboxane A2 receptor [1] and at Thromboxane A2 receptor [2] were 31.6 nM and 2.51 nM, respectively. The molecule further showed an IC50 against Thromboxane-A synthase of 100 nM.
Turning to `CCc1ccncc1-c1ccc(CO[C@@H]2CC[C@H](N3CCCCCC3)[C@H]2OC/C=C\CCC(=O)O)cc1`, the Kb is 10 nM on Thromboxane A2 receptor [1] and 1 nM at Thromboxane A2 receptor [2]. The same molecule had a concentration for half-maximal inhibition (IC50) against Thromboxane-A synthase of 2510 nM.
As for `O=C(O)CCCC/C=C(\c1ccccc1)c1cccnc1` [(E)-ISBOGREL], the values for the Kb on Thromboxane A2 receptor [1] and at Thromboxane A2 receptor [2] were 6310 nM and 15800 nM, respectively.
For `O=C(O)CC/C=C\CO[C@H]1[C@H](OCc2ccc(-c3cccnc3CO)cc2)CC[C@@H]1N1CCCCCC1`, the Kb at Thromboxane A2 receptor [1] and on Thromboxane A2 receptor [2] was 3.16 nM in each case. Also, at Thromboxane-A synthase, the IC50 was over 10000 nM.
With `O=C(O)CC/C=C\CO[C@H]1[C@H](OCc2ccc(-c3cnccc3CO)cc2)CC[C@@H]1N1CCCCCC1`, the values for the Kb on Thromboxane A2 receptor [1] and at Thromboxane A2 receptor [2] were 12.6 nM and 3.16 nM, respectively. This molecule also had an IC50 against Thromboxane-A synthase of 1580 nM.
The like results for `CCCc1ccncc1-c1ccc(CO[C@@H]2CC[C@H](N3CCCCCC3)[C@H]2OC/C=C\CCC(=O)O)cc1` were, in that order, 31.6 nM, 2.51 nM and 100 nM.
For `O=C(O)CC/C=C\CO[C@H]1[C@H](OCc2ccc(-c3cnccc3CCO)cc2)CC[C@@H]1N1CCCCCC1`, in that order: 3.16 nM, 3.16 nM and over 10000 nM.
The like results for `Cc1cnccc1-c1ccc(CO[C@@H]2CC[C@H](N3CCCCCC3)[C@H]2OC/C=C\CCC(=O)O)cc1` were, in that order, 20 nM, 6.31 nM and 1580 nM.
Consider `CC(C)(C)c1ccncc1-c1ccc(CO[C@@H]2CC[C@H](N3CCCCCC3)[C@H]2OC/C=C\CCC(=O)O)cc1`, for which the Kb on Thromboxane A2 receptor [1] and at Thromboxane A2 receptor [2] was 3.16 nM throughout. In addition, the IC50 on Thromboxane-A synthase is over 10000 nM.
For `O=C(O)CCCCO/N=C(/c1cccnc1)c1cccc(C(F)(F)F)c1` [RIDOGREL], the results for the Kb on Thromboxane A2 receptor [1] and on Thromboxane A2 receptor [2] were 1260 nM and 3980 nM, respectively. The same molecule gave an IC50 on Thromboxane-A synthase of 31.6 nM.
Regarding `CCCCc1ccncc1-c1ccc(CO[C@@H]2CC[C@H](N3CCCCCC3)[C@H]2OC/C=C\CCC(=O)O)cc1`, the Kb at Thromboxane A2 receptor [1] was 10 nM; at Thromboxane A2 receptor [2], 3.98 nM. Also, the half-inhibitory concentration (IC50) on Thromboxane-A synthase was 100 nM.
The like results for `O=C(O)CC/C=C\CO[C@H]1[C@H](OCc2ccc(-c3ccncc3)cc2)CC[C@@H]1N1CCCCCC1` were, in that order, 79.4 nM, 10 nM and 631 nM.
The like results for `CCc1cnccc1-c1ccc(CO[C@@H]2CC[C@H](N3CCCCCC3)[C@H]2OC/C=C\CCC(=O)O)cc1` were, in that order, 15.8 nM, 6.31 nM and 398 nM.
`O=C(O)CC/C=C\CO[C@H]1[C@H](OCc2ccc(-c3ccncc3CO)cc2)CC[C@@H]1N1CCCCCC1`: the figures for the Kb on Thromboxane A2 receptor [1] and at Thromboxane A2 receptor [2] were 15.8 nM and 3.16 nM, respectively.
In the case of `O=C(O)CC/C=C\CO[C@H]1[C@H](OCc2ccc(-c3cncc(CO)c3)cc2)CC[C@@H]1N1CCCCCC1`, the Kb at Thromboxane A2 receptor [1] was 25.1 nM; on Thromboxane A2 receptor [2], 6.31 nM. Besides, the 50% inhibitory concentration (IC50) against Thromboxane-A synthase is over 10000 nM.
For `O=C(O)CC/C=C\CO[C@H]1[C@H](OCc2ccc(-c3cccnc3)cc2)CC[C@@H]1N1CCCCCC1`, in that order: 39.8 nM, 12.6 nM and 631 nM.
